Holding throughout (format): cell-based, human
One test deals with CCL-210 cells. Nature of the test: DOX cancer killing efficiency (MTS assay). The settings on record: CCL210, 3 days incubation. As to the method: (§1) DOX cancer killing efficiency: The effects of DOX-loaded vesicles on A549/CCL210 cells were done by CellTiter 96® Aqueous Cell Proliferation assay (Promega) (MTS assay) to assess relative metabolic activity of the cells. Prior to MTS treatment, DOX-loaded vesicles were incubated with cultured A549/CCL210 cells at 60-70% confluency for 3 days at varying doses. The MTS assays were conducted after incubation for 3 days, following the manufacturer's instructions. Untreated A549 or CCL210 cells were used as positive control groups (assuming 100% metabolic activity) for normalization. Free DOX (unencapsulated) and DOX-loaded PLGA NPs were prepared as comparison groups. To obtain dose-response curves, metabolic activity was plotted versus the amount of DOX administered, which was determined based on spectrophotometric analysis of eEV/LbL-eEV/PLGA NPs. The sigmoidal dose-response curves were fitted with Hill's equation using GraphPad software: […]
(§2) where Max is the Y value at the top plateau and Min is the Y value at the bottom plateau. IC50 (inhibitory concentration, 50%) is the X value when the response is halfway between Min and Max.
On the technique in general: Tetrazolium assays rely on reduction of a dye to a coloured formazan, in cell work by metabolically active cells.

A further test concerns A549 cells. Nature of the test: DOX cancer killing efficiency (MTS assay). The settings on record: A549, 3 days incubation. As to the method:
as §1, §2

Test [1] relates to GFP-expressing A549 cells. Nature of the test: siRNA-mediated GFP knockdown. As to conditions: lipid-siRNA complexes following electroporation, no EV. On the procedure:
Quantification of siRNA knockdown in A549 cells: To evaluate the knockdown efficiency of EV-mediated siRNA delivery within the constitutively expressing-GFP-A549 cells over time, GFP fluorescence was measured and quantified using a plate reader (Cytation 5) every day for 12 days (34). To ensure the decrease of green fluorescence intensity is due to the RNA interference of GFP-siRNA in the cells and not caused by the cytotoxicity of the delivery system, each sample type or condition was delivered with scrambled siRNA as a control. The knockdown efficiency was calculated using the below equation: […]
where Fsi is the fluorescence of the well using GFP-siRNA, Fsc is the fluorescence of the well using corresponding scrambled siRNA, Fbg is the fluorescence background of the media without cells, Fosi is the initial fluorescence of the well just prior to delivery for the GFP-siRNA formulations and Fosc is the initial fluorescence of the well prior to delivery of the corresponding scrambled siRNA control group. Commercial Lipofectamine® RNAiMax formulation was used as a positive control to compare the knockdown efficiency between samples. The formulation was prepared according to the manufacturer's instruction. Briefly, 0.3 μl of Lipofectamine® RNAiMax was used to deliver 1 pmol of siRNA. […] Area under the curve (knockdown efficiency vs time) was calculated to determine the difference in duration using GraphPad Prism 7 software.
siRNA knockdown efficiency: To evaluate the knockdown efficiency of LbL-EV mediated siRNA delivery within GFP-expressing A549 cells, GFP fluorescence was measured and quantified using the same apparatus (Cytation 5) every day as previously described (34, 63). The knockdown efficiency of siRNA-GFP was calculated by normalizing each sample type/condition to each individual negative control treated with scrambled siRNA. […] Area under the curve (knockdown efficiency vs time) was calculated by GraphPad Prism 7 software to determine the overall knockdown efficiency of each condition. […]

Here are results for four compounds from US20250241948A1, “Engineered Extracellular Vesicle Delivery Systems and Uses Thereof” (The Texas A&M University System, priority 2020, published 2025).

`COc1cccc2c1C(=O)c1c(O)c3c(c(O)c1C2=O)C[C@@](O)(C(=O)CO)C[C@@H]3O[C@H]1C[C@H](N)[C@H](O)[C@H](C)O1` [Free DOX, doxorubicin]: in the test on CCL-210 cells, the “IC10 of DOX” value is 0.200 μ/ml, the “IC50 of DOX” value amounted to 0.400 ± 0.024 μ/ml and the “IC90 of DOX” value is listed as 0.780 μ/ml. In the test with A549 cells, the “IC10 of DOX” value is on record as 0.510 μ/ml and the “IC90 of DOX” value was found to be 0.690 μ/ml.

As to `CCCCCCCC/C=C\CCCCCCCC(=O)O[C@H](COC(=O)CCCCCCCCCCCCCCC)COP(=O)(O)OCC(O)CO` (some centres unmarked) [POPG, 1-Palmitoyl-2-oleoyl-sn-glycero-3-phosphoglycerol], the “GFP down-regulation by lipid-siRNA complexes” value (shortened to “GFP down-regulation”) in test [1] is “not able to down-regulate GFP expression”.

Regarding `CCCCCCCCCCCCCCCC(=O)OC[C@H](COP(=O)([O-])OCC[N+](C)(C)C)OC(=O)CCCCCCCCCCCCCCC` [DPPC, 1,2-dipalmitoyl-sn-glycero-3-phosphocholine], in test [1], the “GFP down-regulation” value is given as “not able to down-regulate GFP expression”.

As to `CCCCCCCC/C=C\CCCCCCCC(=O)O[C@H](COC(=O)CCCCCCCCCCCCCCC)COP(=O)([O-])OCC[N+](C)(C)C` [POPC, 1-Palmitoyl-2-oleoyl-sn-glycero-3-phosphocholine], the “GFP down-regulation” value in test [1] is reported as “not able to down-regulate GFP expression”.
